The values below come from patent publication US20240002388A1, “PYRIMIDINONE COMPOUNDS AND USES THEREOF” (HUTCHISON MEDIPHARMA LIMITED, priority 2020, published 2024).

Sequence of RIPK1 recombination protein (Q13546 other isoform, or with tags, fused parts or gaps): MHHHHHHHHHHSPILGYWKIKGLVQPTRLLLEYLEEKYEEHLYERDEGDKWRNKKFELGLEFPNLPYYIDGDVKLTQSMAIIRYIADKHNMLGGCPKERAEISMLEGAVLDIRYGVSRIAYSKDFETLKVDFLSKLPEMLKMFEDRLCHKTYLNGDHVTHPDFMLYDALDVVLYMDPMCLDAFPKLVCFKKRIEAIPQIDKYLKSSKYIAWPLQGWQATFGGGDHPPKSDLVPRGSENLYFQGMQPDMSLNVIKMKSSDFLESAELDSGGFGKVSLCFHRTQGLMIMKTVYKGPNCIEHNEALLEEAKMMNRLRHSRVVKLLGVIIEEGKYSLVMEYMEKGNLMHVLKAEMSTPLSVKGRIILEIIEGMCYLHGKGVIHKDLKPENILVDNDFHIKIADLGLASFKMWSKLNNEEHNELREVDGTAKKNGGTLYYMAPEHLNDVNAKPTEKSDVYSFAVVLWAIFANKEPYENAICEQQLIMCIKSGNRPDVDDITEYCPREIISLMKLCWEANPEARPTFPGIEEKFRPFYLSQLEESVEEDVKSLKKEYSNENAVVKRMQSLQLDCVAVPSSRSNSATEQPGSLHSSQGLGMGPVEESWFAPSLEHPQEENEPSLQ

In the experiment the target is RIPK1 recombination protein (Homo sapiens (Human), UniProt Q13546). As to the kind of experiment: RIPK1 kinase activity assay (ADP-Glo). In kind it is biochemical. As to conditions: RIPK1 kinase activity, ADP-Glo, 10 μM ATP. The procedure:
RIPK1 recombination protein: synthesized by Shanghai Medicilon Inc. under the commission by Hutchison MediPharma Limited (50 g of cell pellet was resuspended in 250 mL of lysis buffer (50 mM Tris, pH 7.5, 250 mM NaCl, 1 mM DTT, protease inhibitor 1:50), the cells were ultrasonically lysed using a sonicator (the power set to 4) on ice for 3×30 minutes; then centrifugation was carried out at 4° C., at 15,000 g for 30 minutes to clarify the suspension, the soluble pellet was resuspended into 10 mL of glutathione agarose, and incubated at 4° C. for 2 hours; then the beads were loaded into the column and washed with lysis buffer (no protease inhibitors) to baseline, and eluted with 20 mM of reduced glutathione (50 mM Tris, pH 8). The fractions identified by SDS-PAGE as containing the protein of interest were collected (10 mL of total volume), concentrated to about 5 mL and loaded into 300 mL superdex75 column (GE Healthcare) equilibrated with buffer (50 mM Tris, pH 7.5, 150 mM NaCl, 1 mM DTT, 10% glycerol, pH 7.5). RIP1 protein was eluted as a dimer from the superdex75 column. The protein concentration was determined by the Bradford assay using BSA as the standard. The yield was 12.5 mg at 0.63 mg/mL. The protein was aliquoted and frozen at −80° C. for later use.
ADP-Glo Kinase kit can be used to measure ADP level in kinase activity assay so as to distinguish the inhibitory effects of different compounds on RIPK1 kinase activity. The ADP-Glo assay was usually divided into three steps. Firstly, the kinase converted ATP to ADP and phosphorylated the substrate at the same time; secondly, ATP digestion reagent was added to degrade all ATP in the reaction system; finally, a detection reagent was added to reduce ADP to ATP, and energy from ATP was transferred to […] which thus emitting a chemical luminescence that can be detected. Assay procedure can refer to manufacture's technical manual.
(2) Reagent Preparation: • 1.33× kinase buffer: 5× kinase buffer stock (250 mM of NaCl, 150 mM of MgCl2, 2.5 mg/ml BSA (bovine serum albumin), 0.1% CHAPS (3-[(3-cholamidopropyl)-dimethyl-ammonio]-1-propane sulfonate), and 5 mM of dithiothreitol) was diluted with water to 1.33× kinase buffer; • RIPK1 enzyme solution: the kinase was dissolved in 1.33× kinase buffer to make 40 nM as the final working concentration; • ATP solution: 10 mM ATP stock solution in water was dissolved in 1.33× kinase buffer to make 10 μM as the final working concentration; • 4× compound preparation: the compound was diluted in a 3-fold gradient, and finally 4% DMSO aqueous solution containing different concentrations of the compound was obtained. The final concentrations of the test compound were 10, 3.33, 1.11, 0.37, 0.12, 0.04, 0.014, and 0.005 μM.
The assay set up two control groups, one was 100% inhibition group (no enzyme treatment), another was 0% inhibition group (no inhibitor treatment), each control group contained 8 replicate wells. 2.5 μl of serially diluted compound was added to each well of a 384-well plate, with double replicate wells, and 4% DMSO solution was added to control wells. Then 5 μl of RIPK1 enzyme solution was added to each well except 100% inhibition control, 5 ul of buffer was added to 100% inhibition control, after that, 2.5 μl of ATP solution was added to all wells, the plate was vibrated at 1000 rpm for 30 seconds to perform transient centrifuge; finally the 384-well assay plate was put in the shaking incubator, and incubated at room temperature for 3 hours. After the enzymatic reaction was completed, 5 μl of ATP depletion reagent was added to each well, the mixture was centrifuged transiently, then the 384-well assay plate was put in the shaking incubator, and incubated at room temperature for 1 hour. 5 μl of ADP detection reagent was added to each well, and the mixture was centrifuged transiently, and incubated at room temperature for 0.5 hour. […]
Regarding `CC(C)n1ncc2cnc(C(=O)NC3(c4ccc(-c5cncn([C@H](C)C(F)(F)F)c5=O)cc4)CC3)nc21` [Compound 39], the half-inhibitory concentration (IC50) came to 59 nM.
To `CC(C)n1ncc2cnc(C(=O)NC3(c4ccc(-c5cncn([C@@H](C)C(F)(F)F)c5=O)cc4)CC3)nc21` [Compound 40] belongs 52 nM.
For `CC(C)n1ncc2cnc(C(=O)NC3(c4ccc(-c5cncn(C6COC6)c5=O)cc4)CC3)nc21` [Compound 41], the concentration for half-maximal inhibition (IC50) came to 61 nM.
Next, `CC(C)n1ncc2cnc(C(=O)NC3(c4ccc(-c5cncn(C6CCC6)c5=O)cc4)CC3)nc21` [Compound 42]: 56 nM; `CC[C@H](C)n1cncc(-c2ccc(C3(NC(=O)c4ncc5cnn(C(C)C)c5n4)CC3)cc2)c1=O` [Compound 43]: 32 nM; `CC[C@@H](C)n1cncc(-c2ccc(C3(NC(=O)c4ncc5cnn(C(C)C)c5n4)CC3)cc2)c1=O` [Compound 44]: 37 nM.
Next, `CC(C)Cn1cncc(-c2ccc(C3(NC(=O)c4ncc5cnn(C(C)C)c5n4)CC3)cc2)c1=O` [Compound 45]: 40 nM; `Cn1cncc(-c2ccc(C3(NC(=O)c4nc5n(n4)[C@@H](c4ccccc4)CC5)CC3)cc2)c1=O` [Compound 54, (R)—N-(1-(4-(1-methyl-6-oxo-1,6-dihydropyrimidin-5-yl)phenyl)cyclopropyl)-5-phenyl-6,7-dihydro-5H-pyrrolo[1,2-b][1,2,4]triazole-2-carboxamide]: 27 nM; `C[C@H](c1ccccc1)n1cnc(C(=O)NC2(c3ccc(-c4cncn(C)c4=O)cc3)CC2)n1` [Compound 55, (R)—N-(1-(4-(1-methyl-6-oxo-1,6-dihydropyrimidin-5-yl)phenyl)cyclopropyl)-1-(1-phenylethyl)-1H-1,2,4-triazole-3-carboxamide]: 23 nM.
Next, `CC(C)n1cncc(-c2ccc(C3(NC(=O)c4ncc5cnn(C6COC6)c5n4)CC3)cc2)c1=O` [Compound 60]: 59 nM; `CC(C)n1cncc(-c2ccc(C3(NC(=O)c4ncc5cnn(CC6CC6)c5n4)CC3)cc2)c1=O` [Compound 61]: 14 nM.
In the case of `CC(C)n1cncc(-c2ccc(C3(NC(=O)c4ncc5cnn(CC6CCC6)c5n4)CC3)cc2)c1=O` [Compound 62], the half-maximal inhibitory concentration (IC50) is 21 nM.
For `CC(C)n1cncc(-c2ccc(C3(NC(=O)c4ncc5cnn(-c6ccccn6)c5n4)CC3)cc2)c1=O` [Compound 63], the concentration for half-maximal inhibition (IC50) is 37 nM.
Next, `O=C(NC1(c2ccc(-c3cncn(CC4CC4)c3=O)cc2)CC1)c1ncc2cnn(CC3CC3)c2n1` [Compound 64]: 17 nM; `CC(C)n1ncc2cnc(C(=O)NC3(c4ccc(-c5cncn(C6CC(F)(F)C6)c5=O)cc4)CC3)nc21` [Compound 65]: 36 nM.
Next, `CC(C)n1ncc2cnc(C(=O)NC3(c4ccc(-c5cncn(CC6CCC6)c5=O)cc4)CC3)nc21` [Compound 66]: 48 nM; `CC(C)n1ncc2cnc(C(=O)NC3(c4ccc(-c5cncn([C@H]6C[C@@H]6F)c5=O)cc4)CC3)nc21` [Compound 67]: 49 nM; `C[C@H](n1cncc(-c2ccc(C3(NC(=O)c4ncc5cnn(CC6CC6)c5n4)CC3)cc2)c1=O)C(F)(F)F` [Compound 68]: 43 nM.
To `CC(C)n1ncc2cnc(C(=O)NC3(c4ccc(-c5cncn([C@@H]6C[C@@H]6F)c5=O)cc4)CC3)nc21` [Compound 69] belongs 21 nM; to `C[C@@H](n1cncc(-c2ccc(C3(NC(=O)c4ncc5cnn(CC6CC6)c5n4)CC3)cc2)c1=O)C(F)(F)F` [Compound 70], 51 nM.
Regarding `C[C@H](n1cncc(-c2ccc(C3(NC(=O)c4ncc5cnn(CC6CC6)c5n4)CC3)c(F)c2)c1=O)C(F)(F)F` [Compound 71], the IC50 worked out at 110 nM.
Next, `CC(C)n1cncc(-c2ccc(C3(NC(=O)c4ncc5cnn(CC6CC6)c5n4)CC3)c(F)c2)c1=O` [Compound 72]: 65 nM; `CC(C)n1cncc(-c2ccc(C3(NC(=O)c4ncc5cnn(CC6CC6)c5n4)CC3)cc2F)c1=O` [Compound 73]: 52 nM.
